In US20240150293A1, “SPIROCYCLOHEXANE DERIVATIVES, PHARMACEUTICAL COMPOSITIONS CONTAINING THEM AND THEIR USES AS ANTI-APOPTOTIC INHIBITORS” (LES LABORATOIRES SERVIER, priority 2021, published 2024) one finds Ki and IC50 data, which are given here for 21 compounds.

The target in assay [1] is Cy5-labelled Mcl1 (amino acids 171-321) C286S protein (UniProtKB Q07820) (Homo sapiens (Human), UniProt Q07820, C286S). Briefly: Inhibition of Mcl-1 by the fluorescence quenching assay (Example A, Method B). It is filed as binding. In short, it runs like this:
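Cy5-labelled Mcl1 171-321 C286S (1 nM) quenched by TQ5WS-labelled PUMA peptide (10, 20 or 400 nM); displacement raises fluorescence (Ex 620/Em 680 nm). Buffer 10 mM HEPES, 150 mM NaCl, 0.05% Tween 20, pH 7.4, 5% DMSO; 2 h at room temperature, 11-point curves, IC50 converted to Ki (cKi/eKi).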

The test system of assay [2] is H929 multiple myeloma tumor line. In words: In vitro cytotoxicity, MTT assay (Example B, Method A). It is filed as cell-based. Conditions: H929 cells, 48 hours exposure, read-out: C50. How it is done:
The cytotoxicity studies were carried out on the H929 multiple myeloma tumor line.
The cells are distributed onto microplates and exposed to the test compounds for 48 hours. The cell viability is then quantified by a colorimetric assay, the Microculture Tetrazolium Assay (Carmichael et al, Cancer Res. 1987, 47, 939-942).
The results are expressed in C50 which means concentration corresponding to […] of effect/inhibition.
In general terms: Tetrazolium dyes change colour on reduction, which living cells bring about.

Like-named read-outs stand apart in the source and are kept apart here.

Chain of Cy5-labelled Mcl1 (amino acids 171-321) C286S protein (Q07820 171-321 C286S): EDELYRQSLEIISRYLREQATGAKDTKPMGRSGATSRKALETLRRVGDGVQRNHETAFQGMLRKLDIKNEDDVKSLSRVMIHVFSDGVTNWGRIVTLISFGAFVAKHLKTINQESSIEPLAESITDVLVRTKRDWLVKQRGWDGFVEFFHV

One may read the Ki as a measure of affinity in units of concentration, obtained from inhibition or displacement. For `C[C@@H](COc1ccnc2c1[C@H](C)CCC2)CC1=Cc2cc(F)ccc2[C@]12CC[C@@](Nc1cccc(Cl)c1)(C(=O)O)CC2` [Example 767, (1r,4R)-4-(3-chloroanilino)-5′-fluoro-2′-[(2R)-2-methyl-3-{[(5R)-5-methyl-5,6,7,8-tetrahydroquinolin-4-yl]oxy}propyl]spiro[cyclohexane-1,1′-indene]-4-carboxylic acid], in assay [1], the inhibitory constant (Ki) came to 0.305 nM. In assay [2] (Homo sapiens, NCI-H929, 48 h), the IC50 was found to be 78.8 nM.

`C[C@@H](COc1ccnc2c1CCCC2)C[C@H]1Cc2ccccc2[C@]12CC[C@@](Nc1cccc(Cl)c1)(C(=O)O)CC2` [Example 645, (1r,4R)-4-(3-chloroanilino)-2′-{(2R)-2-methyl-3-[(5,6,7,8-tetrahydroquinolin-4-yl)oxy]propyl}-2′,3′-dihydrospiro[cyclohexane-1,1′-indene]-4-carboxylic acid]: the Ki in assay [1] is 4.04 nM. The IC50 in assay [2] (Homo sapiens, NCI-H929, 48 h) was 617 nM.

Turning to `O=C(O)[C@]1(Nc2cccc(Cl)c2)CC[C@@]2(CC1)c1ccccc1CC2CC(COc1ccnc2ccsc12)Cc1ccccc1` (single isomer, unassigned) [Example 563, (1r,4r)-2′-{2-benzyl-3-[(thieno[3,2-b]pyridin-7-yl)oxy]propyl}-4-(3-chloroanilino)-2′,3′-dihydrospiro[cyclohexane-1,1′-indene]-4-carboxylic acid], the Ki in assay [1] stood at 43.5 nM. Further, in assay [2], the IC50 was 3950 nM.

Regarding `CC[C@@H](COc1ccncc1)C[C@H]1Cc2ccccc2[C@]12CC[C@@](Nc1cccc(Cl)c1)(C(=O)O)CC2` [Example 544, (1r,2′S,4S)-4-(3-chloroanilino)-2′-[(2R)-2-{[(pyridin-4-yl)oxy]methyl}butyl]-2′,3′-dihydrospiro[cyclohexane-1,1′-indene]-4-carboxylic acid], the inhibition constant (Ki) in assay [1] came out at 22.4 nM. Moreover, the IC50 in assay [2] (Homo sapiens, NCI-H929, 48 h) came to 8320 nM.

In the case of `C[C@@H](COc1ccnc2c1[C@@H](C)CCC2)C[C@H]1Cc2ccccc2[C@]12CC[C@@](Nc1cccc(Cl)c1)(C(=O)O)CC2` [Example 654, (1r,2′S,4S)-4-(3-chloroanilino)-2′-[(2R)-2-methyl-3-{[(5S)-5-methyl-5,6,7,8-tetrahydroquinolin-4-yl]oxy}propyl]-2′,3′-dihydrospiro[cyclohexane-1,1′-indene]-4-carboxylic acid], the inhibition constant (Ki) in assay [1] amounted to 5.2 nM. Besides, the IC50 in assay [2] (Homo sapiens, NCI-H929, 48 h) stood at 765 nM.

As to `CC(O)c1ccc2c(c1)[C@]1(CC[C@@](Nc3cccc(Cl)c3)(C(=O)O)CC1)[C@@H](C[C@@H](C)COc1ccnc3c1[C@H](C)CC[C@H]3O)C2` (single isomer, unassigned) [Example 861], the inhibition constant (Ki) in assay [1] is 0.0909 nM. The IC50 in assay [2] (Homo sapiens, NCI-H929, 48 h) was found to be 56.3 nM.

Turning to `C[C@@H](COc1ccnc2c1[C@H](C)CCC2)CC1=Cc2ccc(CO)cc2[C@]12CC[C@@](Nc1cccc(Cl)c1)(C(=O)O)CC2` [Example 868, (1r,4R)-4-(3-chloroanilino)-6′-(hydroxymethyl)-2′-[(2R)-2-methyl-3-{[(5R)-5-methyl-5,6,7,8-tetrahydroquinolin-4-yl]oxy}propyl]spiro[cyclohexane-1,1′-indene]-4-carboxylic acid], in assay [1], the Ki worked out at 0.19 nM. The IC50 in assay [2] (Homo sapiens, NCI-H929, 48 h) came out at 231 nM.

Turning to `C[C@@H](COc1ccnc2c1[C@H](C)CCC2)CC1Cc2c(Cl)cccc2[C@]12CC[C@@](Nc1cccc(Cl)c1)(C(=O)O)CC2` (single isomer, unassigned) [Example 741], the inhibitory constant (Ki) in assay [1] came out at 1.58 nM. Besides, the IC50 in assay [2] amounted to 132 nM.

In the case of `C[C@@H](COc1ccnc2c1CCC2)C[C@@H]1Cc2ccccc2[C@]12CC[C@@](Nc1cccc(Cl)c1)(C(=O)O)CC2` [Example 598, (1r,2′R,4R)-4-(3-chloroanilino)-2′-{(2R)-3-[(6,7-dihydro-5H-cyclopenta[b]pyridin-4-yl)oxy]-2-methylpropyl}-2′,3′-dihydrospiro[cyclohexane-1,1′-indene]-4-carboxylic acid], the Ki in assay [1] is 4.29 nM. Further, the IC50 in assay [2] (Homo sapiens, NCI-H929, 48 h) was 590 nM.

Consider `C[C@@H]1CCCc2nccc(OCC(CC3=Cc4ccccc4[C@]34CC[C@@](Nc3cccc(Cl)c3)(C(=O)O)CC4)c3ccccn3)c21` (stereo partly drawn) [Example 566, (1r,4R)-4-(3-chloroanilino)-2′-[3-{[(5R)-5-methyl-5,6,7,8-tetrahydroquinolin-4-yl]oxy}-2-(pyridin-2-yl)propyl]spiro[cyclohexane-1,1′-indene]-4-carboxylic acid], for which, in assay [1], the inhibitory constant (Ki) was 4.34 nM. Besides, the IC50 in assay [2] (Homo sapiens, NCI-H929, 48 h) came out at 721 nM.

In the case of `C[C@@H](CNc1ccnc2ccsc12)C[C@H]1Cc2ccccc2[C@]12CC[C@@](Nc1cccc(Cl)c1)(C(=O)O)CC2` [Example 627, (1r,2′S,4S)-4-(3-chloroanilino)-2′-{(2R)-2-methyl-3-[(thieno[3,2-b]pyridin-7-yl)amino]propyl}-2′,3′-dihydrospiro[cyclohexane-1,1′-indene]-4-carboxylic acid], in assay [1], the inhibition constant Ki was 7.36 nM. In assay [2] (Homo sapiens, NCI-H929, 48 h), the IC50 was determined as 1330 nM.

Take `CC[C@@H]1CCCc2nccc(OC[C@H](C)C[C@H]3Cc4ccccc4[C@]34CC[C@@](Nc3cccc(Cl)c3)(C(=O)O)CC4)c21` [Example 657, (1r,2′S,4S)-4-(3-chloroanilino)-2′-[(2R)-3-{[(5R)-5-ethyl-5,6,7,8-tetrahydroquinolin-4-yl]oxy}-2-methylpropyl]-2′,3′-dihydrospiro[cyclohexane-1,1′-indene]-4-carboxylic acid]: the inhibition constant (Ki) in assay [1] is 2.94 nM. Besides, in assay [2] (Homo sapiens, NCI-H929, 48 h), the IC50 is 139 nM.

Turning to `C[C@@H](COc1ccnc2c1[C@H](C)CCC2)C[C@@H]1Cc2cc3c(cc2[C@]12CC[C@@](Nc1cccc(Cl)c1)(C(=O)O)CC2)OCO3` [Example 841, (1r,4R,6′R)-4-(3-chloroanilino)-6′-[(2R)-2-methyl-3-{[(5R)-5-methyl-5,6,7,8-tetrahydroquinolin-4-yl]oxy}propyl]-6′,7′-dihydro-2′H-spiro[cyclohexane-1,5′-indeno[5,6-d][1,3]dioxole]-4-carboxylic acid], in assay [1], the inhibition constant Ki is 0.172 nM. Also, the IC50 in assay [2] (Homo sapiens, NCI-H929, 48 h) came to 76.6 nM.

`C[C@@H](COc1ccnc2c1C(F)(F)CCC2)C[C@H]1Cc2ccccc2[C@]12CC[C@@](Nc1cccc(Cl)c1)(C(=O)O)CC2` [Example 693, (1r,2′S,4S)-4-(3-chloroanilino)-2′-{(2R)-3-[(5,5-difluoro-5,6,7,8-tetrahydroquinolin-4-yl)oxy]-2-methylpropyl}-2′,3′-dihydrospiro[cyclohexane-1,1′-indene]-4-carboxylic acid]: the inhibition constant (Ki) in assay [1] turned out to be 3.7 nM. Further, the IC50 in assay [2] (Homo sapiens, NCI-H929, 48 h) came to 527 nM.

Turning to `C[C@@H](COc1ccnc2c1[C@H](C)CCC2)C[C@H]1Cc2ccccc2[C@]12CC[C@@](Nc1cccc(C#N)c1)(C(=O)O)CC2` [Example 716, (1r,2′S,4S)-4-(3-cyanoanilino)-2′-[(2R)-2-methyl-3-{[(5R)-5-methyl-5,6,7,8-tetrahydroquinolin-4-yl]oxy}propyl]-2′,3′-dihydrospiro[cyclohexane-1,1′-indene]-4-carboxylic acid], the inhibition constant Ki in assay [1] was 4.71 nM. Also, the IC50 in assay [2] (Homo sapiens, NCI-H929, 48 h) is 311 nM.

For the compound `CC(C)c1cnccc1OC[C@H](C)C[C@H]1Cc2ccccc2[C@]12CC[C@@](Nc1cccc(Cl)c1)(C(=O)O)CC2` [Example 587, (1r,2′S,4S)-4-(3-chloroanilino)-2′-[(2R)-2-methyl-3-{[3-(propan-2-yl)pyridin-4-yl]oxy}propyl]-2′,3′-dihydrospiro[cyclohexane-1,1′-indene]-4-carboxylic acid], the Ki in assay [1] is 3.93 nM. Also, the IC50 in assay [2] (Homo sapiens, NCI-H929, 48 h) stood at 679 nM.

Turning to `C[C@@H](COc1ccnc2c1[C@@H](CC(F)(F)F)CCC2)C[C@H]1Cc2ccccc2[C@]12CC[C@@](Nc1cccc(Cl)c1)(C(=O)O)CC2` [Example 694, (1r,2′S,4S)-4-(3-chloroanilino)-2′-[(2R)-2-methyl-3-{[(5R)-5-(2,2,2-trifluoroethyl)-5,6,7,8-tetrahydroquinolin-4-yl]oxy}propyl]-2′,3′-dihydrospiro[cyclohexane-1,1′-indene]-4-carboxylic acid], the Ki in assay [1] was determined as 100 nM. Also, in assay [2] (Homo sapiens, NCI-H929, 48 h), the IC50 was determined as 6290 nM.

For the compound `C[C@H]1Cc2nccc(OC[C@H](C)C[C@H]3Cc4ccccc4[C@]34CC[C@@](Nc3cccc(Cl)c3)(C(=O)O)CC4)c2[C@@H](C)C1` [Example 664, (1r,2′S,4S)-4-(3-chloroanilino)-2′-[(2R)-3-{[(5S,7R)-5,7-dimethyl-5,6,7,8-tetrahydroquinolin-4-yl]oxy}-2-methylpropyl]-2′,3′-dihydrospiro[cyclohexane-1,1′-indene]-4-carboxylic acid], in assay [1], the inhibitory constant (Ki) was found to be 52.5 nM. The IC50 in assay [2] (Homo sapiens, NCI-H929, 48 h) was 3030 nM.

In the case of `C[C@@H]1CCCc2nccc(OCC(F)CC3Cc4ccccc4[C@]34CC[C@@](Nc3cccc(Cl)c3)(C(=O)O)CC4)c21` (single isomer, unassigned) [Example 509], the inhibitory constant (Ki) in assay [1] turned out to be 5.3 nM. For the same compound, the IC50 in assay [2] stood at 999 nM.

`Cc1cn(C[C@H](C)C[C@H]2Cc3ccccc3[C@]23CC[C@@](Nc2cccc(Cl)c2)(C(=O)O)CC3)c2c(c1=O)C(C)CCC2` (single isomer, unassigned) [Example 640]: in assay [1], the inhibitory constant (Ki) stood at 980 nM. The IC50 in assay [2] came out at 18100 nM.

Consider `C[C@@H]1CCCc2nccc(OCC(CF)CC3=Cc4ccccc4[C@]34CC[C@@](Nc3cccc(Cl)c3)(C(=O)O)CC4)c21` (single isomer, unassigned) [Example 515], for which the inhibition constant Ki in assay [1] was 26.4 nM. Also, the IC50 in assay [2] was determined as 2390 nM.
